Drawing on ChEMBL document CHEMBL1123386, “Substituted-vinyl hydroxytriarylethylenes, 1-[4-[2-(diethylamino) ethoxy]phenyl]-1-(4-hydroxyphenyl)-2-phenylethylenes: synthesis and effects on MCF 7 breast cancer cell proliferation” (J Med Chem, 1986), this text covers Kd for six compounds.

This experiment deals with MCF7. The experiment can be described thus: Compound was tested for binding affinity against nuclear ER in MCF-7 cell extracts. It counts as functional, cell-based, Homo sapiens.
`CCN(CC)CCOc1ccc(/C(=C(/C#N)c2ccccc2)c2ccc(O)cc2)cc1` registered a Kd of 1.11 nM.

For `CCN(CC)CCOc1ccc(/C(=C(\c2ccccc2)[N+](=O)[O-])c2ccc(O)cc2)cc1`, binding was put at a Kd of 0.56 nM.

The compound `CCN(CC)CCOc1ccc(/C(=C\c2ccccc2)c2ccc(O)cc2)cc1` gave a Kd of 1.11 nM.

Compound `CC/C(=C(\c1ccc(O)cc1)c1ccc(OCCN(CC)CC)cc1)c1ccccc1` returned a Kd of 0.29 nM.

In turn, `CCN(CC)CCOc1ccc(/C(=C(/Br)c2ccccc2)c2ccc(O)cc2)cc1` registered a dissociation constant Kd of 0.36 nM.

Regarding `CCN(CC)CCOc1ccc(/C(=C(/Cl)c2ccccc2)c2ccc(O)cc2)cc1` [4-OH-ENCLOMIPHENE], the Kd was determined as 0.11 nM.
